Laboratory results reported in patent publication US12180207B2 (ARRAY BIOPHARMA INC., priority 2018, dated 2024).

How the values were obtained:
[1] = biological target: dephosphorylated FGFR1 (SEQ ID NO: 1, amino acids 458 to 765) (Homo sapiens (Human), UniProt P11362); assay: FGFR enzyme binding assay (HTRF tracer displacement), FGFR1; conditions: 5 nM dephosphorylated FGFR1, average of multiple determinations if made
In short: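 Compounds were tested for displacement of a tracer from human FGFR kinase in a time-resolved FRET binding format. After 60 minutes at 22° C, signal was read at two wavelengths and converted to percent of control, normalised between untreated wells and 1 μM reference inhibitor.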

[2] = biological target: recombinant human FGFR3 (amino acids R397-T806) (Homo sapiens (Human), UniProt P22607); assay: FGFR3 enzyme activity assay (LanthaScreen TR-FRET); assay type: biochemical; conditions: 25 μM ATP, 10 min incubation at 22° C., average of multiple determinations if made, read-out: FGFR3 Enz FRET IC50
In short: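 GST-HIS6-tagged human FGFR3 (R397-T806) was reacted with 100 nM Alexa Fluor 647-Poly-GT substrate and 25 μM ATP plus compound in HEPES/MgCl2/Triton buffer, pH 7.5, 2% DMSO, for 10 min at 22 °C.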

[3] = biological target: FGFR1 (SEQ ID NO: 1, amino acids 458-765) (Homo sapiens (Human), UniProt P11362); assay: LC/MS FGFR1 kobs assay (covalent protein modification); assay type: binding; conditions: 500 nM FGFR1, 3 μM compound
In short: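 Covalent labeling of FGFR1 kinase domain (aa 458-765) tracked over time by intact-protein LC/MS after formic acid quench. kobs derived by fitting DMSO-normalized percent unmodified FGFR1 to an exponential decay model.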

[4] = biological target: FGFR3 (SEQ ID NO: 5, amino acids 449-759) (Homo sapiens (Human), UniProt P22607); assay: LC/MS FGFR3 kobs assay (covalent protein modification); assay type: binding; conditions: 500 nM FGFR3, 3 μM compound
In short: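 Intact-mass LC/MS tracks covalent labeling of the kinase domain over time after acid quench (0.4% formic acid). Unmodified fraction, scaled to DMSO controls, is fitted as exponential decay; kobs is reported, averaged when measured more than once.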

[5] = biological target: HEK-293 cells transfected with dox-inducible human wild type FGFR1 (Homo sapiens (Human), UniProt P11362); assay: FGFR1 pERK cell assay; assay type: cell-based; conditions: HEK-293 dox-inducible FGFR1, 1 hour compound, 100 ng/ml FGF-acidic; maximum concentration 5 μM
In short: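 In HEK-293 cells with dox-induced human wild-type FGFR1, compounds (1:3 dilutions, top 5 μM final) were applied 1 h at 37°C before 5 min stimulation with 100 ng/ml FGF-acidic. Phospho-ERK1/2 measured by MSD sandwich immunoassay; IC50 from 4-parameter fit of POC versus vehicle and control compound.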

Chain of FGFR3 (SEQ ID NO: 5, amino acids 449-759) (P22607 449-759): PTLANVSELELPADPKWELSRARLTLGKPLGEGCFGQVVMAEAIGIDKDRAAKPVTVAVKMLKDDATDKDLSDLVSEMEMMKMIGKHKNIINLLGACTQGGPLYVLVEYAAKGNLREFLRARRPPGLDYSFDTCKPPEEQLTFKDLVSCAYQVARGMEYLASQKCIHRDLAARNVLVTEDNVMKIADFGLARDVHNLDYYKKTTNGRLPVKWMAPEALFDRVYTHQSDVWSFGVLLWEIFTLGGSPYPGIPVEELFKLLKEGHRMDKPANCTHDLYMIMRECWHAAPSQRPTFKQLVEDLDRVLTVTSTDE
Chain of HEK-293 cells transfected with dox-inducible human wild type FGFR1 (P11362 22-822): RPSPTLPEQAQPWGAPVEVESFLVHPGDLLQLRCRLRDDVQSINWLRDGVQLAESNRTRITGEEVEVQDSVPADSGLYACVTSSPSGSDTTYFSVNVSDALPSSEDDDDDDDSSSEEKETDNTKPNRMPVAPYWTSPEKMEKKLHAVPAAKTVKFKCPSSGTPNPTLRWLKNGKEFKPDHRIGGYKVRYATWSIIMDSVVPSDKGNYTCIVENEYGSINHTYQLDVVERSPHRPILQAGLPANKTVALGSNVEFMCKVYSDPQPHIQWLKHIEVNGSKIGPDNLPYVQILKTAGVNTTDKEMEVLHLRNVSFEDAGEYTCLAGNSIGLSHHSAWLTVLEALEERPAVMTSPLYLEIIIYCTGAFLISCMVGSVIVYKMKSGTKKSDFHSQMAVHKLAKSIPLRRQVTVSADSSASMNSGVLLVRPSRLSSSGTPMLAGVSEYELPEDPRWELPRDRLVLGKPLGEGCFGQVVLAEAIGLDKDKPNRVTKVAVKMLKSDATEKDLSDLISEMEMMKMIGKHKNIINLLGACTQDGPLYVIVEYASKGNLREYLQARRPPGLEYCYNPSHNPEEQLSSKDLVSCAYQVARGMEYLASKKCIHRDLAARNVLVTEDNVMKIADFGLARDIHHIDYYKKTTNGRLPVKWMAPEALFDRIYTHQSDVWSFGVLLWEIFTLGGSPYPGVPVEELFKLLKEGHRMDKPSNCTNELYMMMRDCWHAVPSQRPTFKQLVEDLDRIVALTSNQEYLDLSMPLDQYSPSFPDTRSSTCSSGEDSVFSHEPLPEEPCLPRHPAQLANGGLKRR
Chain of recombinant human FGFR3 (amino acids R397-T806) (P22607 397-806): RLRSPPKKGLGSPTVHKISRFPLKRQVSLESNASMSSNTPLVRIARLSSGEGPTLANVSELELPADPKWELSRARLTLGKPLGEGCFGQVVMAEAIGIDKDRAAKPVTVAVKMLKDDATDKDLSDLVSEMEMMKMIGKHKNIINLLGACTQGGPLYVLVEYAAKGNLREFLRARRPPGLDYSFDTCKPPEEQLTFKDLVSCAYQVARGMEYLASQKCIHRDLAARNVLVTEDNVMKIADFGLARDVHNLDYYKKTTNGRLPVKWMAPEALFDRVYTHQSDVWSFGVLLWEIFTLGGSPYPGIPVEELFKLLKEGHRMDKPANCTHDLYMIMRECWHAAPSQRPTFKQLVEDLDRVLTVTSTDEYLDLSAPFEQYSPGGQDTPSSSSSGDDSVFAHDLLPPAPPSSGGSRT
Chain of FGFR1 (SEQ ID NO: 1, amino acids 458-765) (P11362 458-765): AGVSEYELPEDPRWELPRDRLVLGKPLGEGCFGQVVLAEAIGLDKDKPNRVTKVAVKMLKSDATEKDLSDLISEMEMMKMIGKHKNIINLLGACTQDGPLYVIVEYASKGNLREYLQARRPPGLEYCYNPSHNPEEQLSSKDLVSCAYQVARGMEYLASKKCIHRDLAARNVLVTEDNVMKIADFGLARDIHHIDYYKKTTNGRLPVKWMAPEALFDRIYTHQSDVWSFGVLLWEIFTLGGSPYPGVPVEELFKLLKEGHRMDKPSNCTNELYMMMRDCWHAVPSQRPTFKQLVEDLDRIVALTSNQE
Chain of dephosphorylated FGFR1 (SEQ ID NO: 1, amino acids 458 to 765) (P11362 458-765): as above

Row | Structure (SMILES) | IC50 [1] [nM] | IC50 [2] [nM] | FGFR1 Enz kobs [3] [min⁻¹] | FGFR3 Enz kobs [4] [min⁻¹] | IC50 [5] [nM]
1 | C=CC(=O)N1CC(S(=O)(=O)N2CCC(n3cc(-c4cc(OC)c5c(C#N)cnn5c4)cn3)CC2)C1 [Example 134, 6-(1-(1-((1-acryloylazetidin-3-yl)sulfonyl)piperidin-4-yl)-1H-pyrazol-4-yl)-4-methoxypyrazolo[1,5-a]pyridine-3-carbonitrile] | 35 | 6 | 0.00288 | 0.02537 | 96
2 | C=CC(=O)N1CCN(C(=O)N2CCC(n3cc(-c4cc(OC)c5c(C#N)cnn5c4)cn3)CC2)C[C@@H]1CC#N [Example 135, (S)-6-(1-(1-(4-acryloyl-3-(cyanomethyl)piperazine-1-carbonyl)piperidin-4-yl)-1H-pyrazol-4-yl)-4-methoxypyrazolo[1,5-a]pyridine-3-carbonitrile] | 35 | 6 | 0.0029 | 0.02201 | 342
3 | C#CC(=O)N1CC(C(=O)N2CCC(n3cc(-c4cc(OC)c5c(C#N)cnn5c4)cn3)CC2)C1 [Example 138, 4-methoxy-6-(1-(1-(1-propioloylazetidine-3-carbonyl)piperidin-4-yl)-1H-pyrazol-4-yl)pyrazolo[1,5-a]pyridine-3-carbonitrile] | 27 | 2 | 0.01359 | 0.3446 | 116
4 | COc1cc(-c2cnn(C3CCN(C(=O)C4CN(C(=O)/C=C/CO)C4)CC3)c2)cn2ncc(C#N)c12 [Example 141, (E)-6-(1-(1-(1-(4-hydroxybut-2-enoyl)azetidine-3-carbonyl)piperidin-4-yl)-1H-pyrazol-4-yl)-4-methoxypyrazolo [1,5-a]pyridine-3-carbonitrile] | 40 | 6 | 0.00014 | 0.00171 | ≥ 5000
5 | COc1cc(-c2cnn(C3CCN(CC4CN(C(=O)/C=C/CN(C)C)C4)CC3)c2)cn2ncc(C#N)c12 [Example 146, (E)-6-(1-(1-((1-(4-(dimethylamino)but-2-enoyl)azetidin-3-yl)methyl)piperidin-4-yl)-1H-pyrazol-4-yl)-4-methoxypyrazolo [1,5-a]pyridine-3-carbonitrile] | 51 | 2 | 0.00306 | 0.01542 | 496
6 | C=CC(=O)N1CC(CN2CCC(n3ncc(-c4cc(OC)c5c(C#N)cnn5c4)c3C)CC2)C1(C)C (stereo not shown) [Example 151, 6-(1-(1-((1-acryloyl-2,2-dimethylazetidin-3-yl)methyl)piperidin-4-yl)-5-methyl-1H-pyrazol-4-yl)-4-methoxypyrazolo [1,5-a]pyridine-3-carbonitrile] | 171 | 17 | 0.0008 | 0.0082 | 1960
7 | COc1cc(-c2cnn(C3CCN(C(=O)C4CN(C(=O)/C=C/CN(C)C)C4)CC3)c2C)cn2ncc(C#N)c12 [Example 152, (E)-6-(1-(1-(1-(4-(dimethylamino)but-2-enoyl)azetidine-3-carbonyl)piperidin-4-yl)-5-methyl-1H-pyrazol-4-yl)-4-methoxypyrazolo [1,5-a]pyridine-3-carbonitrile] | 320 | 16 | 0.00338 | 0.03526 | ≥ 5000
8 | COc1cc(-c2cnn(C3CCN(C(=O)C4(F)CN(C(=O)/C=C/CN(C)C)C4)CC3)c2C)cn2ncc(C#N)c12 [Example 153, (E)-6-(1-(1-(1-(4-(dimethylamino)but-2-enoyl)-3-fluoroazetidine-3-carbonyl)piperidin-4-yl)-5-methyl-1H-pyrazol-4-yl)-4-methoxypyrazolo [1,5-a]pyridine-3-carbonitrile] | 210 | 5 | 0.00975 | 0.1578 | 2
9 | COC/C=C/C(=O)N1CC(F)(C(=O)N2CCC(n3ncc(-c4cc(OC)c5c(C#N)cnn5c4)c3C)CC2)C1 [Example 154, (E)-6-(1-(1-(3-fluoro-1-(4-methoxybut-2-enoyl)azetidine-3-carbonyl)piperidin-4-yl)-5-methyl-1H-pyrazol-4-yl)-4-methoxypyrazolo [1,5-a]pyridine-3-carbonitrile] | 430 | 19 | 0.00081 | 0.00747 | 2630
10 | CC#CC(=O)N1CC(F)(C(=O)N2CCC(n3ncc(-c4cc(OC)c5c(C#N)cnn5c4)c3C)CC2)C1 [Example 156, 6-(1-(1-(1-(but-2-ynoyl)-3-fluoroazetidine-3-carbonyl)piperidin-4-yl)-5-methyl-1H-pyrazol-4-yl)-4-methoxypyrazolo [1,5-a]pyridine-3-carbonitrile] | 598 | 24 | 0.0008 | 0.00585 | 3110
11 | COc1cc(-c2cnn(C3CCN(C(=O)C4(C)CN(C(=O)/C=C/CN(C)C)C4)CC3)c2C)cn2ncc(C#N)c12 [Example 157, (E)-6-(1-(1-(1-(4-(dimethylamino)but-2-enoyl)-3-methylazetidine-3-carbonyl)piperidin-4-yl)-5-methyl-1H-pyrazol-4-yl)-4-methoxypyrazolo [1,5-a]pyridine-3-carbonitrile] | 274 | 18 | 0.0025 | 0.03267 | ≥ 5000
12 | COc1cc(-c2cnn(C3CCN(C(=O)C4(OC)CN(C(=O)/C=C/CN(C)C)C4)CC3)c2C)cn2ncc(C#N)c12 [Example 158, (E)-6-(1-(1-(1-(4-(dimethylamino)but-2-enoyl)-3-methoxyazetidine-3-carbonyl)piperidin-4-yl)-5-methyl-1H-pyrazol-4-yl)-4-methoxypyrazolo [1,5-a]pyridine-3-carbonitrile] | 168 | 8 | 0.00588 | 0.1008 | 1830
13 | COc1cc(-c2cnn(C3CCN(CC4(OC)CN(C(=O)/C=C/CN(C)C)C4)CC3)c2C)cn2ncc(C#N)c12 [Example 159, (E)-6-(1-(1-((1-(4-(dimethylamino)but-2-enoyl)-3-methoxyazetidin-3-yl)methyl)piperidin-4-yl)-5-methyl-1H-pyrazol-4-yl)-4-methoxypyrazolo [1,5-a]pyridine-3-carbonitrile] | 144 | 10 | 0.00408 | 0.0605 | 737
14 | COc1cc(-c2cnn(C3CN(C(=O)C4(F)CN(C(=O)/C=C/CN(C)C)C4)C3)c2C)cn2ncc(C#N)c12 [Example 160, (E)-6-(1-(1-(1-(4-(dimethylamino)but-2-enoyl)-3-fluoroazetidine-3-carbonyl)azetidin-3-yl)-5-methyl-1H-pyrazol-4-yl)-4-methoxypyrazolo [1,5-a]pyridine-3-carbonitrile] | 571 | 34 | 0.00659 | 0.08254 | 3280
